# Results published in patent US20240058283A1, “THE MODE OF ACTION OF N-MeDCPA ON TRPC CHANNELS” (West Virginia University Board of Governors on Behalf of …, priority 2022, published 2024).
# Read-outs that look alike come from different tables or passages of the source.
# How the values were obtained:
# CYP enzymes = test: Induction of CYP enzymes; format: in vitro ADME
# TRPC7 = molecular target: T1, TRPC7 (Homo sapiens, UniProt Q9HCX4); test: OAG-induced Ca2+ entry in Fura2-loaded HEK293 cells overexpressing TRPC7; format: cell-based
# T1 construct: expressed in transfected cells; host or cells: HEK293 (transient transfection)
# T1 sequence (Q9HCX4 1-862): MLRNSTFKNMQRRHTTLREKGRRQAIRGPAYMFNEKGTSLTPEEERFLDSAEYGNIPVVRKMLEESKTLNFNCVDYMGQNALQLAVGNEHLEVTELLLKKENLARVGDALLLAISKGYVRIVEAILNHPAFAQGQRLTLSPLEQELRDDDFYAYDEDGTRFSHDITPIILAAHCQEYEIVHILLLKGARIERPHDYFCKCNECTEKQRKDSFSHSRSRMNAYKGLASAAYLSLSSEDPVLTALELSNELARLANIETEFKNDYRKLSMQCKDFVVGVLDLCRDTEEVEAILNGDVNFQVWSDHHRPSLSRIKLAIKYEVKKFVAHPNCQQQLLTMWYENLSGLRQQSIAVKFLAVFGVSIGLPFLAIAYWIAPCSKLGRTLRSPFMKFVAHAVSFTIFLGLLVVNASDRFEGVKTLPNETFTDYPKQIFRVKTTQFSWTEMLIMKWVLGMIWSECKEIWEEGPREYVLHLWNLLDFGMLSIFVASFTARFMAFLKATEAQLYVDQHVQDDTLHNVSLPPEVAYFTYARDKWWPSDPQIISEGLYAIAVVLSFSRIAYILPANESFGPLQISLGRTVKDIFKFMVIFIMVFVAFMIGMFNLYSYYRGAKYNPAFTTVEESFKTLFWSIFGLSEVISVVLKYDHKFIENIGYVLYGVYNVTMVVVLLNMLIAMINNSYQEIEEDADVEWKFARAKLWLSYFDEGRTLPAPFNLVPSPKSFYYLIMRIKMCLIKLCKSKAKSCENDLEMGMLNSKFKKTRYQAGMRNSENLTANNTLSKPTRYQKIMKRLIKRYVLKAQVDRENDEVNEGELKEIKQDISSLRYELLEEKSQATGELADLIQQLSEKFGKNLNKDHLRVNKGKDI
# Experimental: Inhibition of DAG-mediated TRPC activation. To determine if ELP-004 (N-MeDCPA) inhibits DAG-induced TRPC activation, HEK293 cells expressing TRPC3, TRPC6 or TRPC7 were loaded with Fura2 and incubated with ELP-004 (0 to 1 mM) for 10 minutes prior to challenging with 1-Oleoyl-2-acetyl-sn-glycerol (OAG), a membrane permeable form of diacylglycerol.
# Cell Culture—HEK293 cells were grown in DMEM with 4.5 g/L glucose supplemented with 10% FBS and 1% Gentamycin (Full DMEM media; Thermo-Fisher Scientific, Waltham, MA) at 37° C. and 5% CO2. […]
# TRPC activity assay—Cells grown on glass coverslips were incubated in a cation-safe buffer (107 mM NaCl, 7.2 mM KCl, 1.2 mM MgCl2, 11.5 mM Glucose, 20 mM HEPES-NaOH, 1 mM CaCl2), pH 7.2) and loaded with Fura2-acetoxymethylester (Fura2-AM; 2 μM) for 30 min at 24° C. as previously described^10,11. […] Ca^2+/Sr^2+ measurements were taken using a Leica DMI 6000B fluorescence microscope controlled by Slidebook software (Intelligent Imaging Innovations, Denver, CO). Fluorescence emission at 505 nm was monitored in response to excitation at alternating 340 nm and 380 nm wavelengths at a frequency of 0.67 Hz; intracellular Ca^2+ measurements are shown at 340/380 nm ratios obtained from groups of 35-45 single cells. […]
# rats = settings: rat, in vivo
# [1] = Elimination after administration per os; format: in vivo; settings: administered per os
# [2] = test system: bone erosion in collagen-induced arthritis (CIA); test: Collagen-induced arthritis (CIA) bone erosion in mice; format: in vivo
# Text: Inflammatory arthritis often requires treatments with serious side effects. Later in arthritis, bone erosion is a major problem that causes severe pain and debilitation. There is no small molecule drug available to specifically treat arthritis bone erosion. […] In previous studies, we had focused on store-operated Ca^2+ entry as the target of ELP-004, since Orail is required for osteoclast differentiation and ELP-004 blocks RANKL-induced osteoclast differentiation and SOCE at similar concentrations. However, ELP-004 blocks bone erosion in vivo at a remarkable 1000-fold higher efficacy, leading us to question the identity of the critical ion channel. To address this question, we performed a series of ELP-004 dose responses on HEK293 cells overexpressing different combinations of STIM/Orai, TRPC channels or CaV1.2. Remarkably, all TRPC channels were highly sensitive to ELP-004, leading us to consider the possibility that TRPC channels are the true target in arthritis-induced bone erosion. We are currently assessing the possibility that ELP-004 may inhibit osteoclastogenesis with higher efficacy when driven by inflammatory cytokines, both in vitro and in vivo. […]
# [3] = Ability to cross the blood brain barrier
# Experimental: ELP-004 was evaluated for its ability to cross the blood brain barrier. […] Other medications, such as for example but not limited to bupropion are known to cause problems due to dopamine transporter binding.
smiles,measurement,setting,value
"CCC(=O)N(C)c1ccc(Cl)c(Cl)c1 [ELP-004, N-(3,4-dichlorophenyl)-N-methylpropanamide]",effect on induction of CYP enzymes,CYP enzymes,no deleterious effect on induction of CYP enzymes
same,IC50,"TRPC7; FIG. 5, TRPC O/E cells, OAG, Ca2+ present, read-out: TRPC7 IC50",9 nM
same,IC50,"TRPC7; HEK293 expressing TRPC7, ELP-004 0 to 1 mM for 10 minutes before OAG, FIG. 1D, read-out: IC50, inhibition of OAG-induced Ca2+ entry",1000 to 2000 nM
same,oral LD50,rats,> 2.5 g/kg body weight
same,time until essentially eliminated,[1],≤ 4 h
same,efficacy of blocking bone erosion in vivo relative to RANKL-induced osteoclast differentiation and SOCE,[2]; in vivo versus in vitro concentrations,1000 fold
same,bone erosion in collagen-induced arthritis,"[2]; mice, even after symptoms of arthritis were measurable",strongly suppressed bone erosion
same,crossing of the blood brain barrier,[3],does not cross the blood brain barrier
